Data published in patent US4241083A, “Germicidal composition for agriculture and horticulture” (priority 1978, dated 1980).

Tests used:
Toxicity, LD50 for a rat = conditions: in vivo
[1] = Toxicity, LD50 for a mouse; conditions: in vivo
Erysiphe cichoracearum = experiment: Prevention effect for powdery mildew on eggplants (Ex. 23); assay type: in vivo; conditions: emulsion; for Germicidal damage to seedlings: eggplant seedlings; for Percentage of leaf area with disease spots / Percentage of leaves attacked with the disease / Prevention value per leaf (Perfect prevention = 100): third or ninth days, read fifteenth day after inoculation
Protocol: The emulsion was prepared by blending 25 g of ethyl 2-(2-hydroxyethylamino)-3-benzoylpropionate, 25 ml of isopropanol, 3 g of Demol T (formalin condensed naphthalenesulfonate available from Kao Sekken Inc.), 2 g of Emal 10 (sodium lauryl sulphate available from Kao Sekken Inc.) and 45 g of water.
The prevention effect of the emulsion prepared above for powdery mildew on eggplants caused by Erysiphe cichoracearum was examined in the following manner.
Eggplant seedlings of Shinkitsushin variety planted in sections in two rows of three were inoculated with the above germ by brushing on spores from other eggplant leaf attacked with the powdery mildew.
An aqueous solution of ethyl 2-(2-hydroxyethylamino)-3-benzoylpropionate (2000 ppm and 2500 ppm) was sprayed on the test plant on the third or ninth days after the seedlings were inoculated with the germ by means of glass sprayer.
(§1) The leaf area on which powdery mildew spots appeared was measured on the fifteenth day after the seedlings were inoculated with the germ. The spotted area is expressed as a prevention value.

Sphaerotheca fuliginea = experiment: Prevention effect for powdery mildew on cucumbers (Ex. 20, 21); assay type: in vivo; conditions: Table 6; for Germicidal damage to seedlings: cucumber seedlings; for Percentage of leaf area with disease spots / Percentage of leaves attacked with the disease / Prevention value per leaf (Perfect prevention = 100): third and ninth days, read fifteenth day after inoculation
Protocol: The prevention effect for powdery mildew on cucumbers caused by Sphaerotheca fuliginea was examined in the following manner.
Cucumber seedlings (bifoliate age) of Tokiwa Hikari No. 3 (p type) variety planted in sections of two rows of three were inoculated with the above germ by brushing on spores from a cucumber leaf attacked with powdery mildew. […]
The leaf area on which powdery mildew spots appeared was measured on the fifteenth day after the seedlings were inoculated with the germ. The spotted area is expresses as a prevention value.
The same experiment as Example 20 was carried out except that isopropyl 2-(2-hydroxyethylamino)-3-benzoyl-propionate hydrochloride was used instead of ethyl 2-(2-hydroxyethylamino)-3-benzoylpropionate hydrochloride.

apple canker = conditions: cited from earlier work
Valsa ceratosperma = experiment: Length of disease spots on cut apple branches immersed in germicide before inoculation (Ex. 16); assay type: in vivo; conditions: 25° C.
Protocol: Branches of Delicious apple (branch diameter: about 1 cm. thick) grown for 1-2 years were cut to 10 cm. length. The cut branches were dried in a low temperature chamber (3° C.) until the water content of the cut branches became 50%. The dried cut branches were immersed in an aqueous solution of ethyl 2-(2-hydroxyethylamino)-3-benzoylpropionate hydrochloride (500 ppm, 1000 ppm and 2500 ppm) for one minute and then dried.
Each cut branch was end bored by a white heated 8 mm diameter cork borer. Valsa ceratosperma, previously cultured for four days on a potato dextrose-agar culture medium, was introduced into the branch by inoculating the branch with the Valsa ceratosperma containing culture by means of the sterilized cork borer. The branches prepared in this way were placed on wet filter paper spread in a polyethylene tray. The tray was inserted into a polyethylene bag which was sealed and then the bag was put into a thermostat (25° C.) for various controlled times.
After removal from the thermostat, the length of disease spots on each branch was measured.
A similar experiment for comparison was carried out using Benomyl, i.e. methyl-1-(buthylcarbamoyl)-2-benzimidazole carbamate as the germicide. The results of the comparative experiment and also a control experiment, in which the dried cut branches were not immersed in germicide (blank), are also shown in Table 2.

Sphaerotheca humuli = experiment: Prevention effect for powdery mildew on strawberries (Ex. 22); assay type: in vivo; conditions: for Germicidal damage to seedlings: strawberry seedlings; for Percentage of leaf area with disease spots / Percentage of leaves attacked with the disease / Prevention value per leaf (Perfect prevention = 100): third and ninth days, read fifteenth day after inoculation
Source text: The prevention effect for powdery mildew on strawberries caused by Sphaerotheca humuli was examined in the following manner.
Strawberry seedlings (3-4 leaves) of Danar variety dug up and planted in a pot in two row of three without drying the roots was inoculated with the above germ by brushing on the spores from a strawberry leaves attacked with powdery mildew.
An aqueous solution of sec-butyl 2-(2-hydroxyethylamino)-3-benzoylpropionate hydrochloride was sprayed on the test plant on the third and ninth days after the seedlings were inoculated with the germ.
as §1

## CCOC(=O)C(CC(=O)c1ccccc1)NCCO (stereo not drawn) [ethyl 2-(2-hydroxyethylamino)-3-benzoylpropionate]
Toxicity, LD50 for a rat
  LD50: 4790 mg/kg
[1]
  LD50: 7600 mg/kg
Erysiphe cichoracearum; 2000 ppm
  Germicidal damage to seedlings: none
  Percentage of leaf area with disease spots: 0%
  Percentage of leaves attacked with the disease: 0%
  Prevention value per leaf (Perfect prevention = 100): 100
Erysiphe cichoracearum; 2500 ppm
  Germicidal damage to seedlings: none
  Percentage of leaf area with disease spots: 0%
  Percentage of leaves attacked with the disease: 0%
  Prevention value per leaf (Perfect prevention = 100): 100

## CC(C)OC(=O)C(CC(=O)c1ccccc1)NCCO.Cl (stereo not drawn) [isopropyl 2-(2-hydroxyethylamino)-3-benzoyl-propionate hydrochloride]
Sphaerotheca fuliginea; 1500 ppm
  Germicidal damage to seedlings: none
  Percentage of leaf area with disease spots: 8.9%
  Percentage of leaves attacked with the disease: 55.6%
  Prevention value per leaf (Perfect prevention = 100): 88.5
Sphaerotheca fuliginea; 2000 ppm
  Germicidal damage to seedlings: none
  Percentage of leaf area with disease spots: 0%
  Percentage of leaves attacked with the disease: 0%
  Prevention value per leaf (Perfect prevention = 100): 100
Sphaerotheca fuliginea; 2500 ppm
  Germicidal damage to seedlings: none
  Percentage of leaf area with disease spots: 0%
  Percentage of leaves attacked with the disease: 0%
  Prevention value per leaf (Perfect prevention = 100): 100

## CCCCNC(=O)n1c(NC(=O)OC)nc2ccccc21 [methyl-1-(buthylcarbamoyl)-2-benzimidazole carbamate, reference compound]
Apple canker
  effect after the canker attacks: can only weakly prevent the progress of the disease
Valsa ceratosperma; 500 ppm, after 3 days
  Length of disease spot: 1.0 mm
Valsa ceratosperma; 500 ppm, after 5 days
  Length of disease spot: 1.0 mm
Valsa ceratosperma; 500 ppm, after 7 days
  Length of disease spot: 1.8 mm
Valsa ceratosperma; 1000 ppm, after 3 days
  Length of disease spot: 0.5 mm
Valsa ceratosperma; 1000 ppm, after 5 days
  Length of disease spot: 0.5 mm
Valsa ceratosperma; 1000 ppm, after 7 days
  Length of disease spot: 1.0 mm
Valsa ceratosperma; 2500 ppm, after 3 days
  Length of disease spot: 0 mm
Valsa ceratosperma; 2500 ppm, after 5 days
  Length of disease spot: 0 mm
Valsa ceratosperma; 2500 ppm, after 7 days
  Length of disease spot: 0 mm

## CCC(C)OC(=O)C(CC(=O)c1ccccc1)NCCO.Cl (stereo not drawn) [sec-butyl 2-(2-hydroxyethylamino)-3-benzoylpropionate hydrochloride]
Sphaerotheca humuli; 1000 ppm
  Germicidal damage to seedlings: none
  Percentage of leaf area with disease spots: 46.1%
  Percentage of leaves attacked with the disease: 83.3%
  Prevention value per leaf (Perfect prevention = 100): 40.4
Sphaerotheca humuli; 2000 ppm
  Germicidal damage to seedlings: none
  Percentage of leaf area with disease spots: 0%
  Percentage of leaves attacked with the disease: 0%
  Prevention value per leaf (Perfect prevention = 100): 100
Sphaerotheca humuli; 3000 ppm
  Germicidal damage to seedlings: none
  Percentage of leaf area with disease spots: 0%
  Percentage of leaves attacked with the disease: 0%
  Prevention value per leaf (Perfect prevention = 100): 100

## COC(=O)NC(=S)Nc1ccccc1NC(=S)NC(=O)OC [thiophanate methyl, 1,2-bis(3-methylcarbonyl-2-thioureido)]
Apple canker
  effect after the canker attacks: can only weakly prevent the progress of the disease
